Tests used:
[1] = read-out: Cmax concentration; cited from earlier work
[2] = patients; cited from earlier work
2D MH = assay: Drug toxicity by number of cells after 6 days of treatment, 2D differentiated mature hepatocytes; assay type: cell-based, human; conditions: 0.8 μM and 4 μM
Description: (§1) The 2D differentiated mature hepatocytes (2D MH) and organoids (HM) in the HM conditions were seeded in a 24-well plate. […] Three days after seeding, the drug was added daily for 6 days, and toxicity was evaluated by calculating the number of cells using Countess II FL (Life Technology). Then, the organoids were washed with PBS, and fluorescence images were taken with a confocal microscope. Relative intensity was measured using ZEN program (Zeiss) in the same region.
(§2) Next, the effects of trovafloxacin (Sigma; PZ0015) and levofloxacin (Sigma; 28,266), which are structurally related antibiotics, on the 2D MH and the organoids in the HM conditions were compared.

[3] = system: organoids in the HM conditions; assay: Oxygen consumption rate (OCR) for mitochondrial toxicity in liver organoids; assay type: cell-based, human; conditions: 0.8 μM and 4 μM, 6 days
Description: (§3) Oxygen consumption rate (OCR) was measured for real-time monitoring of mitochondrial toxicity. Two days before the measurement, the organoids were seeded on XFe 96-well plate (Agilent; 102416-100). The probe cartridge was adjusted overnight in a non-C02 incubator at 37° C. On the assay day, the culture medium was removed and washed with warm assay medium (Agilent Seahorse XF base medium (102353-100) supplemented with 1 mM glutamine, 1 mM pyruvate and 17.5 mM glucose for OCR measurement), and the assay medium was added. The culture dish was placed in a non-CO2 incubator at 37° C. for 1 hour, and OCR was measured using Seahorse XFe96 Flux Analyzer according to the manufacturer's instructions.
(§4) For OCR measurement, ATP synthesis inhibitors (1.5 μM oligomycin and ETC complex V inhibitor), uncoupler (1 μM FCCP), and complex I inhibitor (0.5 μM Rotenone) plus complex III inhibitor (0.5 μM antimycin A) were sequentially added at designated time points. The measured value was normalized to the number of surviving cells measured by Cell Counting Kit-8 (Dogindo; CK04-01).

[4] = system: steatosis-induced liver organoids; assay: Drug screening of autophagy library for suppressing lipid accumulation (Nile red); assay type: cell-based, human; conditions: 10 μM during steatosis induction; top four of 151 chemical substances
Description: For drug screening, the organoids were treated with 151 chemical substances at a concentration of 10 μM in the autophagy library (Selleckchem; At L2600) during the hepatic steatosis induction period. Then, the organoids were stained with Nile red and fluorescence images were analyzed with a confocal microscope.

[5] = system: steatosis-induced liver organoids; assay: Hepatic steatosis model: mitochondrial respiration measured by OCR; assay type: cell-based, human; conditions: added to FA
Description: as §3, §4
(§5) Meanwhile, in order to confirm the effect on the induction of hepatic steatosis, the organoids in the HM conditions were treated with BSA, FA, FA+etomoxir, FA+L-carnitine, and FA+metformin, respectively, and the results were compared.

[6] = system: steatosis-induced liver organoids; assay: Hepatic steatosis model: lipid droplets by bright field microscope and Nile red staining; assay type: cell-based, human; conditions: added to FA (oleate and palmitate), compared with FA alone
Description: The organoids in the HM conditions were seeded on a 24-well plate in order to be induced into liver organoids with steatosis. Three days after seeding, 0.5 mM oleate (Sigma; 07501) combined with 12% fatty acid-free BSA (Sigma; A8806) and 0.25 mM palmitate (Sigma; P9767) were added for 3 days, and images of accumulated lipid droplets were observed under a microscope. For Nile red staining, the samples were washed with PBS and fixed with 4% PFA at 4° C. overnight. The organoids were washed with PBS and treated with 10 μg/ml Nile red solution (Thermo Fisher; N1142) at room temperature for 5 minutes. Fluorescence images were taken with a confocal microscope.
as §5

[7] = system: organoids in the HM conditions; assay: APAP toxic damage, regeneration and inflammatory response of liver organoids; assay type: cell-based, human
Description: Time-lapsed images were taken at 37° C. under 5% CO2 at 30-minute intervals with an Olympus IX83 inverted microscope. The diameter of the organoid was measured using ImageJ program at the designated time point from the time lapsed image. Fluorescence images were taken with a confocal microscope. In addition, the organoids were cultured for 30 minutes with 7.5 μM dihydroethidium (Sigma; D7008) for detecting ROS, 30 μM monochlorobimane (Sigma; 69899) for measuring GSH content, and 2.5 μM Syto11 (Thermo Fisher; S7573) for staining nuclei.
In addition, the expressions of high-mobility group protein 1 (HMGB1), which is a protein involved in the detection of ROS and the inflammatory response of cells, ki67, which is a marker indicating cell proliferation, E-cadherin, which is an epithelial marker, LC3B, which is an autophagy marker, and Tom20, a mitochondrial marker, were analyzed at protein level according to the method described in Experimental Example 1.

in vitro = conditions: human
Description: as §1, §2

CYP3A4 = CYP3A4 (Homo sapiens, UniProt P08684)
CYP3A4, sequence (P08684 whole entry): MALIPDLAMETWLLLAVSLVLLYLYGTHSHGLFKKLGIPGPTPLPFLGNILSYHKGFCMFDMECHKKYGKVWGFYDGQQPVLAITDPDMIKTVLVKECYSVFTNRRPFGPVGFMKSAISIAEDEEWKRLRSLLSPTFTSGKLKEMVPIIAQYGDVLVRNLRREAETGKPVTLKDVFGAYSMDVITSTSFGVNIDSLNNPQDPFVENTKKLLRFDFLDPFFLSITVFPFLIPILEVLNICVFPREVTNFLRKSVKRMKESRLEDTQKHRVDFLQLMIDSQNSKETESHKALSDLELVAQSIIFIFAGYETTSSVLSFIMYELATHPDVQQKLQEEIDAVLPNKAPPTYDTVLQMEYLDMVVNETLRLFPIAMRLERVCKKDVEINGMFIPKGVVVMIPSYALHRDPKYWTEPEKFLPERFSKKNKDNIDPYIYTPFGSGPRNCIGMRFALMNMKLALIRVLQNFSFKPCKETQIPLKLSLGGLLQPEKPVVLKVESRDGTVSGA
Description: Aliquots (100 μL) were diluted with 2-fold volume of acetonitrile containing carbamazepine as an internal standard for sample analysis and transferred to a 96-well plate.

[8] = system: organoids in the HM conditions; assay: in vitro; conditions: human, 6 days
Description: as §1, §2

[9] = system: steatosis-induced liver organoids; assay: Hepatic steatosis model: triglyceride concentration; assay type: cell-based, human; conditions: added to FA, compared with BSA control or FA alone
Description: For the analysis of triglyceride concentration, the steatosis-induced organoids were analyzed by using triglyceride assay kit (Abcam; ab65336) according to the manufacturer's instructions. The organoids were homogenized for 5 minutes using 1 mL of a 5% NP-40 solution under the condition of heated to 80 to 100° C. The pellets were diluted 10-fold with dilution water before starting the analysis. Absorbance was measured at 570 nm by using SpectraMax microplate reader.
as §5

## N[C@@H]1[C@H]2CN(c3nc4c(cc3F)c(=O)c(C(=O)O)cn4-c3ccc(F)cc3F)C[C@@H]12 [trovafloxacin]
[1]
  Cmax: 4.1 µM
[2]
  reported side effect: patient death due to liver failure
2D MH
  number of cells: little change
[3]
  OCR (mitochondrial respiration): reduction of OCR

## COc1ccc(-c2ccc3c(N4CCOCC4)nc(N4C[C@@H](C)O[C@@H](C)C4)nc3n2)cc1CO [KU-0063794]
[4]
  phenotype of hepatic steatosis and lipid accumulation in drug screening: capable of restoring lipid accumulation

## C[N+](C)(C)C[C@H](O)CC(=O)[O-] [L-carnitine]
[5]
  mitochondrial respiration measured by OCR: recovered
[6]
  accumulation of intracellular lipid droplets / lipid accumulation: significantly reduced

## CC(=O)Nc1ccc(O)cc1 [APAP, acetaminophen]
[7]; 20 mM APAP, dihydroethidium staining
  reactive oxygen species (ROS): increased
[7]; 20 mM APAP, immunofluorescence
  expression amounts of Ki67, E-cadherin, and Tom20: reduced
[7]; 20 mM APAP, immunofluorescence, migration to the cytoplasm
  expression of HMGB1: reduced
[7]; 20 mM daily for 7 days
  organoid morphology: severe morphological damage
[7]; 20 mM for 60 hours from day 2, new HM medium on day 4.5
  organoid morphology and size after recovery: recovered on day 7
[7]; APAP for 60 hours versus APAP for 5 days
  expression of LC3B: more strongly induced
[7]; APAP for 60 hours, then new HM medium on day 4.5, qRT-PCR
  expression of IL-10: significantly increased
[7]; APAP for 7 days, qRT-PCR
  expressions of proinflammatory mediators (IL-1β, IL-6, IL-8) and pathological mediators (TNF-α and FasL): strongly induced

## CC(=O)Nc1ccc(C(=O)Nc2ccccc2N)cc1 [Tacedinalin, Tacedinaline]
[4]
  phenotype of hepatic steatosis and lipid accumulation in drug screening: capable of restoring lipid accumulation

## C[C@H]1COc2c(N3CCN(C)CC3)c(F)cc3c(=O)c(C(=O)O)cn1c23 [levofloxacin]
[1]
  Cmax: 23.8 µM
In vitro
  cytotoxicity at 6 days, 100 μM: 36%

## C[C@]12CC[C@H]3[C@@H](CCC4=CC(=O)CC[C@@]43C)[C@@H]1CC[C@@H]2O [testosterone]
CYP3A4
  metabolism to 6β-hydroxytestosterone: directly hydroxylated

## CO[C@H]1C[C@@H]2CC[C@@H](C)[C@@](O)(O2)C(=O)C(=O)N2CCCC[C@H]2C(=O)O[C@H]([C@H](C)C[C@@H]2CC[C@@H](OCCO)[C@H](OC)C2)CC(=O)[C@H](C)/C=C(\C)[C@@H](O)[C@@H](OC)C(=O)[C@H](C)C[C@H](C)/C=C/C=C/C=C/1C [Everolimus]
[4]
  phenotype of hepatic steatosis and lipid accumulation in drug screening: capable of restoring lipid accumulation

## Cc1c(C)c2c(c(C)c1O)CCC(C)(COc1ccc(CC3SC(=O)NC3=O)cc1)O2 (stereo not drawn) [troglitazone, Troglitazone]
[8]
  toxic response, 2D MH versus organoids: different in 2D and 3D models

## O=C(CCCCCN1C(=O)c2cccc3cccc(c23)C1=O)NO [Scriptaid]
[4]
  phenotype of hepatic steatosis and lipid accumulation in drug screening: capable of restoring lipid accumulation

## CCOC(=O)[C@@]1(CCCCCCOc2ccc(Cl)cc2)CO1 [etomoxir]
[5]
  mitochondrial respiration measured by OCR: significantly reduced
[6]
  accumulation of intracellular lipid droplets / lipid accumulation: significant accumulation
[9]
  intracellular triglyceride concentration: significantly increased

## CN(C)C(=N)N=C(N)N [metformin]
[6]
  accumulation of intracellular lipid droplets / lipid accumulation: slightly reduced
[9]
  intracellular triglyceride concentration: not reduced

From patent US20220308045A1, “EXPANDABLE LIVER ORGANOIDS, MEDIA COMPOSITION FOR DIFFERENTIATION THEREOF, AND METHOD FOR PRODUCING LIVER ORGANOIDS USING THE SAME” (KOREA RESEARCH INSTITUTE OF BIOSCIENCE AND BIOTECHNOLOGY, priority 2019, published 2022)
